Measurements published in patent US7109193B2, “Tricyclic diazepines tocolytic oxytocin receptor antagonists” (Wyeth, priority 2001, dated 2006).

Biological target: T1, human oxytocin receptor (Homo sapiens, UniProt P30559)
T1 construct: host or cells: CHO cells (pcDNA3.1 vector)
T1 sequence (P30559 1-389): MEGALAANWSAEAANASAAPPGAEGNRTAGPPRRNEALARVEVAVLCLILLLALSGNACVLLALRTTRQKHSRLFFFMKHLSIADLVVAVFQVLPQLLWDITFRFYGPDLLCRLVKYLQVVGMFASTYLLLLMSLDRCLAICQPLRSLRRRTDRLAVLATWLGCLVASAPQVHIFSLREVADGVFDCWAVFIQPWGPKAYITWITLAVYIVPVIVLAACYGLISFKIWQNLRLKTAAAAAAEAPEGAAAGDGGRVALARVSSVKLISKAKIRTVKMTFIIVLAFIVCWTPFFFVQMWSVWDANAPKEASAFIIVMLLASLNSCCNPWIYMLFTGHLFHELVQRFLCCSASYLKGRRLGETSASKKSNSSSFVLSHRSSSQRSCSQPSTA
Assay: Oxytocin binding in Chinese Hamster Ovary cell membranes expressing human oxytocin receptors
Conditions: 100 nM, CHO cell membranes, [3H]oxytocin, values without parentheses, read-out: OT % inhibition @ 100% nM

Compound	inhibition at 0.1 µM [%]
COc1cc(-c2ccccc2C)c(Cl)cc1C(=O)N1Cc2ccc(C(=O)NCCCN(C)C)n2Cc2ccccc21 [Example 78, 10-[(6-Chloro-3-methoxy-2′-methyl[1,1′-biphenyl]-4-yl)carbonyl]-N-[3-(dimethylamino)propyl]-10,11-dihydro-5H-pyrrolo[2,1-c][1,4]benzodiazepine-3-carboxamide]	62
COc1ccccc1-c1ccc(C(=O)N2Cc3ccc(C(=O)N[C@H]4CN5CCC4CC5)n3Cc3ccccc32)cc1 [Example 296, N-[(3R)-1-Azabicyclo[2.2.2]oct-3-yl]-10-[(2′-methoxy[1,1′-biphenyl]-4-yl)carbonyl]-10,11-dihydro-5H-pyrrolo[2,1-c][1,4]benzodiazepine-3-carboxamide]	88
COc1cc(C(=O)N2Cc3ccc(C(=O)N4CCCN(C)CC4)n3Cc3ccccc32)ccc1-c1cccc2ccccc12 [Example 68, {10-[3-Methoxy-4-(1-naphthyl)benzoyl]-10,11-dihydro-5H-pyrrolo[2,1-c][1,4]benzodiazepin-3-yl}(4-methyl-1,4-diazepan-1-yl)methanone]	64
Cc1cc(C(=O)N2Cc3cccn3Cc3ccccc32)cc(C)c1-n1c(C)ccc1C [Example 30, [4-(2,5-Dimethyl-1H-pyrrol-1-yl)-3,5-dimethyl-phenyl][10,11-dihydro-5H-pyrrolo[2,1-c][1,4]benzodiazepin-10-yl]methanone]	48
COc1cc(C(=O)N2Cc3ccc(C(=O)N4CCN(CCCN(C)C)CC4)n3Cc3ccccc32)ccc1-c1ccccc1C [Example 250, {4-[3-(Dimethylamino)propyl]-1-piperazinyl}{10-[(2-methoxy-2′-methyl[1,1′-biphenyl]-4-yl)carbonyl]-10,11-dihydro-5H-pyrrolo[2,1-c][1,4]benzodiazepin-3-yl}methanone]	87
COc1cc(C(=O)N2Cc3ccc(C(=O)N4CCN(C)CC4)n3Cc3ccccc32)ccc1-c1cccc2ccccc12 [Example 55, {10-[3-Methoxy-4-(1-naphthyl)benzoyl]-10,11-dihydro-5H-pyrrolo[2,1-c][1,4]benzodiazepin-3-yl}(4-methyl-1-piperazinyl)methanone]	67
Cc1cc(C(=O)N2Cc3ccc(C(=O)N4CCN(CCCN(C)C)CC4)n3Cc3ccccc32)ccc1-c1ccccc1C(F)(F)F [Example 257, {10-[(2-Methyl-2′-trifluoromethyl-[1,1′-biphenyl]-4-yl)carbonyl]-10,11-dihydro-5H-pyrrolo[2,1-c][1,4]benzodiazepin-3-yl}{4-[3-(dimethylamino)propyl]-1-piperazinyl}-methanone]	85
COc1cccc(-c2cc(OC)c(C(=O)N3Cc4ccc(C(=O)N5CCN(C)CC5)n4Cc4ccccc43)cc2Cl)c1 [Example 54, {10-[(6-Chloro-3,3′-dimethoxy[1,1′-biphenyl]-4-yl)carbonyl]-10,11-dihydro-5H-pyrrolo[2,1-c][1,4]benzodiazepin-3-yl}(4-methyl-1-piperazinyl)methanone]	78
Cc1ccccc1-c1ccc(C(=O)N2Cc3ccc(C(=O)N4CCN(CCCN(C)C)CC4)n3Cc3ccccc32)cc1C [Example 247, {4-[3-(Dimethylamino)propyl]-1-piperazinyl}{10-[(2,2′-dimethyl[1,1′-biphenyl]-4-yl)carbonyl]-10,11-dihydro-5H-pyrrolo[2,1-c][1,4]benzodiazepin-3-yl}methanone]	97
CN(C)CCCN1CCN(C(=O)c2ccc3n2Cc2ccccc2N(C(=O)c2ccc(-c4cccc5ccccc45)cc2Cl)C3)CC1 [Example 256, {10-[2-Chloro-4-(1-naphthyl)benzoyl]-10,11-dihydro-5H-pyrrolo[2,1-c][1,4]benzodiazepin-3-yl}{4-[3-(dimethylamino)propyl]-1-piperazinyl}methanone]	33
CCOc1ccccc1-c1cc(OC)c(C(=O)N2Cc3cccn3Cc3ccccc32)cc1Cl [Example 17, 10-{[6-Chloro-3-methoxy-2′-ethoxy[1,1′-biphenyl]-4-yl]carbonyl}-10,11-dihydro-5H-pyrrolo[2,1-c][1,4]benzodiazepine]	28
Cc1ccccc1-c1ccc(C(=O)N2Cc3ccc(C(=O)NCCCN(C)C)n3Cc3ccccc32)cc1C [Example 73, N-[3-(Dimethylamino)propyl]-10-[(2,2′-dimethyl[1,1′-biphenyl]-4-yl)carbonyl]-10,11-dihydro-5H-pyrrolo[2,1-c][1,4]benzodiazepine-3-carboxamide]	85
COc1cccc(-c2ccc(C(=O)N3Cc4ccc(C(=O)N5CCN(CCCN(C)C)CC5)n4Cc4ccccc43)cc2OC)c1 [Example 255, {10-[(2,3′-Dimethoxy[1,1′-biphenyl]-4-yl)carbonyl]-10,11-dihydro-5H-pyrrolo[2,1-c][1,4]benzodiazepin-3-yl}{4-[3-(dimethylamino)propyl]-1-piperazinyl}methanone]	80
Cc1ccccc1-c1ccc(C(=O)N2Cc3ccc(C(=O)N4CCN(C)CC4)n3Cc3ccccc32)cc1C [Example 50, {10-[(2,2′-Dimethyl[1,1′-biphenyl]-4-yl)carbonyl]-10,11-dihydro-5H-pyrrolo[2,1-c][1,4]benzodiazepin-3-yl}(4-methyl-1-piperazinyl)methanone]	95
COc1ccccc1-c1ccc(C(=O)N2Cc3ccc(C(=O)N[C@H]4CN5CCC4CC5)n3Cc3ccccc32)cc1C [Example 298, N-[(3R)-1-Azabicyclo[2.2.2]oct-3-yl]-10-[(2′-methoxy-2-methyl[1,1′-biphenyl]-4-yl)carbonyl]-10,11-dihydro-5H-pyrrolo[2,1-c][1,4]benzodiazepine-3-carboxamide]	94
Cc1ccccc1-c1ccc(C(=O)N2Cc3ccc(C(=O)N4CCCN(C)CC4)n3Cc3ccccc32)cc1C [Example 63, {10-[(2,2′-Dimethyl[1,1′-biphenyl]-4-yl)carbonyl]-10,11-dihydro-5H-pyrrolo[2,1-c][1,4]benzodiazepin-3-yl}(4-methyl-1,4-diazepan-1-yl)methanone]	98
CN1CCN(C(=O)c2ccc3n2Cc2ccccc2N(C(=O)c2ccc(-c4cccc5ccccc45)cc2Cl)C3)CC1 [Example 58, {10-[2-Chloro-4-(1-naphthyl)benzoyl]-10,11-dihydro-5H-pyrrolo[2,1-c][1,4]benzodiazepin-3-yl}(4-methyl-1-piperazinyl)methanone]	24

More lines, now with the values ahead:

inhibition at 0.1 µM [%]	Compound
87	Cc1cc(C(=O)N2Cc3ccc(C(=O)N[C@@H](Cc4c[nH]cn4)C(N)=O)n3Cc3ccccc32)ccc1-c1ccccc1C(F)(F)F [Example 284, N-[(1S)-2-Amino-1-(1H-imidazol-4-ylmethyl)-2-oxoethyl]-10-{[2-methyl-2′-(trifluoromethyl)[1,1′-biphenyl]-4-yl]carbonyl}-10,11-dihydro-5H-pyrrolo[2,1-c][1,4]benzodiazepine-3-carboxamide]
32	COc1cc(C(=O)N2Cc3ccc(C(=O)N4CCN(CCN5CCOCC5)CC4)n3Cc3ccccc32)ccc1-n1c(C)ccc1C [Example 317, {10-[4-(2,5-Dimethyl-1H-pyrrol-1-yl)-3-methoxybenzoyl]-10,11-dihydro-5H-pyrrolo[2,1-c][1,4]benzodiazepin-3-yl}{4-[2-(4-morpholinyl)ethyl]-1-piperazinyl}methanone]
74	COc1cc(-c2ccccc2C)c(Cl)cc1C(=O)N1Cc2ccc(C(=O)N[C@@H](CCCCNC(=O)OC(C)(C)C)C(N)=O)n2Cc2ccccc21 [Example 304, tert-Butyl (5S)-6-amino-5-[({10-[(6-chloro-3-methoxy-2′-methyl[1,1′-biphenyl]-4-yl)carbonyl]-10,11-dihydro-5H-pyrrolo[2,1-c][1,4]benzodiazepin-3-yl}carbonyl)amino]-6-oxohexylcarbamate]
32	COc1cc(C(=O)N2Cc3ccc(C(=O)n4ccnc4)n3Cc3ccccc32)ccc1-c1cccc2ccccc12 [Example 291, 1H-Imidazol-1-yl-{10-[3-methoxy-4-(1-naphthyl)benzoyl]-10,11-dihydro-5H-pyrrolo[2,1-c][1,4]benzodiazepin-3-yl}methanone]
32	COc1cc(C(=O)N2Cc3ccc(C(=O)N4CCC(N5CCCC5)CC4)n3Cc3ccccc32)ccc1-n1c(C)ccc1C [Example 313, {10-[4-(2,5-Dimethyl-1H-pyrrol-1-yl)-3-methoxybenzoyl]-10,11-dihydro-5H-pyrrolo[2,1-c][1,4]benzodiazepin-3-yl}[4-(1-pyrrolidinyl)-1-piperidinyl]methanone]
16	COc1cc(C(=O)N2Cc3ccc(C(=O)NCCCn4ccnc4)n3Cc3ccccc32)ccc1-n1c(C)ccc1C [Example 312, 10-[4-(2,5-Dimethyl-1H-pyrrol-1-yl)-3-methoxybenzoyl]-N-[3-(1H-imidazol-1-yl)propyl]-10,11-dihydro-5H-pyrrolo[2,1-c][1,4]benzodiazepine-3-carboxamide]
34	COc1cc(C(=O)N2Cc3ccc(C(=O)N4CCN(C)CC4)n3Cc3ccccc32)ccc1-n1c(C)ccc1C [Example 306, {10-[4-(2,5-Dimethyl-1H-pyrrol-1-yl)-3-methoxybenzoyl]-10,11-dihydro-5H-pyrrolo[2,1-c][1,4]benzodiazepin-3-yl}(4-methyl-1-piperazinyl)methanone]
78	COc1cc(C(=O)N2Cc3ccc(C(=O)n4ccnc4)n3Cc3ccccc32)ccc1-c1ccccc1C [Example 290, 1H-Imidazol-1-yl-{10-[(2-methoxy-2′-methyl[1,1′-biphenyl]-4-yl)carbonyl]-10,11-dihydro-5H-pyrrolo[2,1-c][1,4]benzodiazepin-3-yl}methanone]
